Our source for the IC50 values is patent US7645784B2, “Benzimidazole derivatives” (AstraZeneca AB, priority 2003, dated 2010).

Each structure is given as a SMILES string.

In this test the target is T1, hVR1 (Homo sapiens, UniProt Q8NER1).
T1 construct: expressed in transfected cells
As to the kind of experiment: hVR1 FLIPR (Fluorometric Image Plate Reader) screening assay, IC50 determination. To be noted: CHO cells stably expressing hVR1. Format: cell-based. The protocol: 1. hVR1 FLIPR (Fluorometric Image Plate Reader) screening assay
Transfected CHO cells, stably expessing hVR1 (15,000 cells/well) are seeded in 50 μL media in a black clear bottom 384 plate (Greiner) and grown in a humidified incubator (37° C., 2% CO2), 24-30 hours prior to experiment.
Subsequently, the media is removed from the cell plate by inversion and 2 μM Fluo-4 is added using a multidrop (Labsystems). Following the 40 min dye incubation in the dark at 37° C. and 2% CO2, the extracellular dye present is washed away using an EMBLA (Scatron), leaving the cells in 40 μL of assay buffer (1×HBSS, 10 mM D-Glucose, 1 mM CaCl2,10 mM HEPES, 10×7.5% NaHCO3 and 2.5 mM Probenecid).
FLIPR assay—IC50 determination protocol
For IC50 determinations the fluorescence is read using FLIPR filter 1 (em […]). A cellular baseline recording is taken for 30 seconds, followed by a 20 μL addition of 10, titrated half-log concentrations of the test compound, yielding cellular concentration ranging from 3 μM to 0.1 nM. Data is collected every 2 seconds for a further 5 min prior to the addition of a VR1 agonist solution: either 50 nM solution of capsaicin or MES (2-[N-morpholino]ethanesulfonic acid) buffer (pH 5.2), by the FLIPR pipettor. The FLIPR continues to collect data for a further 4 min. Compounds having antagonistic properties against the hVR1 will inhibit the increase in intracellular calcium in response to the capsaicin addition. This consequently leading to a reduction in fluorescence signal and providing a reduced fluorescence reading, compared with no compound, buffer controls. Data is exported by the FLIPR program as a sum of fluorescence calculated under the curve upon the addition of capsaicin. Maximum inhibition, Hill slope and IC50 data for each compound are generated.

T1 sequence (Q8NER1 whole entry): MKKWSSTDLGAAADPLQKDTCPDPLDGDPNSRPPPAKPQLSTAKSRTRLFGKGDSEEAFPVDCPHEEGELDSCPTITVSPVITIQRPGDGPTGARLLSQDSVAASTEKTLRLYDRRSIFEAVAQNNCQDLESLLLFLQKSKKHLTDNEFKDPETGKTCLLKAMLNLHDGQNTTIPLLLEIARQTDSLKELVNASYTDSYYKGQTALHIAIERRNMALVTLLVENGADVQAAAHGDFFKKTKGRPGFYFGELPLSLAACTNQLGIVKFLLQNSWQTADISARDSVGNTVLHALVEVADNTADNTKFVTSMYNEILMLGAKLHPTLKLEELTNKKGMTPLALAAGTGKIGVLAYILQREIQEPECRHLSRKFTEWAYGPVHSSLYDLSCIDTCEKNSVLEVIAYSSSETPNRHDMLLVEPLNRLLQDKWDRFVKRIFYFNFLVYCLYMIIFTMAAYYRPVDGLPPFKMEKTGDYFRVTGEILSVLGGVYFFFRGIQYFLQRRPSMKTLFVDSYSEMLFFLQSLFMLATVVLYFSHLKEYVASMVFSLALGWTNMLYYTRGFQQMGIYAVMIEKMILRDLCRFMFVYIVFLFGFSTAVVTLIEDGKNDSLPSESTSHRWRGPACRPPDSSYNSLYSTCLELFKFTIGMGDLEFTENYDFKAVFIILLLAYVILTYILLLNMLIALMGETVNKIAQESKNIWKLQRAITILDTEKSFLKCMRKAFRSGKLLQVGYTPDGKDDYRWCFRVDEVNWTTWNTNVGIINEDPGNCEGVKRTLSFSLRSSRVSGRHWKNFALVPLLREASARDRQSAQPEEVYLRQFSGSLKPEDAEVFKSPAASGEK

Broadly, the IC50 is the midpoint of a concentration-inhibition curve. Read a high IC50 as a need for much substance. On to `COC(=O)c1cccc2ncn(CC(=O)Nc3cc(OC)cc(OC)c3)c12` [Example 67, Methyl 1-{2-[(3,5-dimethoxyphenyl)amino]-2-oxoethyl}-1H-benzimidazole-7-carboxylate], for which the IC50 (agonist H+/MES buffer (pH 5.2)) was 140 nM and the IC50 (agonist capsaicin) turned out to be 160 nM.
The matching figures for `O=C(Cn1cnc2cccc([N+](=O)[O-])c21)Nc1cc(F)cc(F)c1` [Example 7, N-(3,5-Difluorophenyl)-2-(7-nitro-1H-benzimidazol-1-yl)acetamide]: 70 nM and 50 nM.
